Marks after values point to notes of the source that are not given here.
Legend:
[1] = tested on: CYP2C19; test: Induction of CYP enzymes in human hepatocytes; conditions: percent of positive control
Experimental: In vitro induction of CYP mRNA (CYPs 1A2, 2C8, 2C9 and 3A4) or enzyme activity (CYPs 1A2, 2C19 and 3A4) was assessed in human hepatocytes.

[2] = tested on: CYP2B6; test: Induction of CYP enzymes in human hepatocytes; format: in vitro ADME; conditions: percent of positive control
[3] = tested on: CYPs 1A2, 2B6, 2C19, and 3A4; test: Induction of CYP enzymes in human hepatocytes, CYPs tested taken together; format: in vitro ADME
[4] = humans, mass balance study; cited from earlier work
[5] = set-up: method as in Roche data on file; conditions: human plasma; ref Roche data on file; cited from earlier work
[6] = target: P-gp (Homo sapiens, UniProt P08183); test: In vitro P-gp substrate assay (Caco-2 and MDCKII-MDR1 cells); format: in vitro ADME; set-up: expressed in transfected cells; host or cells: MDCKII-MDR1 cells; also Caco-2 cells
Chain of P-gp (P08183 whole entry): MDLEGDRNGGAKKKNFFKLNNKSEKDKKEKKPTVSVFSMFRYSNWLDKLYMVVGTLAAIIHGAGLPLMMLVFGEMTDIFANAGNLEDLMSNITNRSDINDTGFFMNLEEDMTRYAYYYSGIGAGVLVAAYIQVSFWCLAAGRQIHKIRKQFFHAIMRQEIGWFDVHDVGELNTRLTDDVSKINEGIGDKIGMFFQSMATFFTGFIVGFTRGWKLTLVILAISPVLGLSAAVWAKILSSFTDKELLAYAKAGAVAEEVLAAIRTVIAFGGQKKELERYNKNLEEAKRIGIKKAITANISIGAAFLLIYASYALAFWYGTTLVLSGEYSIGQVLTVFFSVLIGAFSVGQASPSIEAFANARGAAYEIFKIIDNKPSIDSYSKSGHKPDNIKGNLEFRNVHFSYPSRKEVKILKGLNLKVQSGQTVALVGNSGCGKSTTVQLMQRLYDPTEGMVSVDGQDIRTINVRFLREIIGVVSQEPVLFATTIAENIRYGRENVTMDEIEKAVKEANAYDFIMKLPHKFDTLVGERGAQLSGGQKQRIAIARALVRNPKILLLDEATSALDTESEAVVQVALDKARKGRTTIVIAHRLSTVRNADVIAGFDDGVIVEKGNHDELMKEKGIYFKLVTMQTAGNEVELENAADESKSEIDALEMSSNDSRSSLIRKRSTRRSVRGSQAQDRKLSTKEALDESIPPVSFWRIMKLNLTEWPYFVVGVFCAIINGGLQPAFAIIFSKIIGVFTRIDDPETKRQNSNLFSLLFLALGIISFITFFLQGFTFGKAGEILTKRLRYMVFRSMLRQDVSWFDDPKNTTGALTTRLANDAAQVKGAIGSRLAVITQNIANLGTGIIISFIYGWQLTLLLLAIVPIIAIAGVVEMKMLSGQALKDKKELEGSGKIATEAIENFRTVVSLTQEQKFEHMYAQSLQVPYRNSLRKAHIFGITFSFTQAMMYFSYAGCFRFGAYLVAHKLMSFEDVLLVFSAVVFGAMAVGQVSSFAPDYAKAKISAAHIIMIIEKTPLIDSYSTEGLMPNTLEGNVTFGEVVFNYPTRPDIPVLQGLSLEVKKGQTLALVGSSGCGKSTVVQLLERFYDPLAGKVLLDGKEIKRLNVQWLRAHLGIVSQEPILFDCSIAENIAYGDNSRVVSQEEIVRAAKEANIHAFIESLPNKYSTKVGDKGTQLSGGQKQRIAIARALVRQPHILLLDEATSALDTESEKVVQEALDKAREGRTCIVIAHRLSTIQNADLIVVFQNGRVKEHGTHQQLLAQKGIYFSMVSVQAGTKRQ

[7] = tested on: CYPs 1A2, 2B6, 2C8, 2C9, 2C19 and 2D6 (all tested CYPs but CYP3A4/5); test: In vitro CYP inhibition in human liver microsomes, CYPs not named one by one; format: in vitro ADME; conditions: human, read-out: IC50 for the other CYPs tested

Compound | Relative Effectiveness ± SD Based on CYP Activity ([1]; M5 0.5 µM) | Relative Effectiveness ± SD Based on CYP Activity ([1]; M5 2.5 µM) | Relative Effectiveness ± SD Based on CYP Activity ([1]; M5 10 µM, n=2) | Relative Effectiveness ± SD Based on CYP Activity ([2]; M5 0.5 µM) | Relative Effectiveness ± SD Based on CYP mRNA ([2]; M5 0.5 µM) | Relative Effectiveness ± SD Based on CYP Activity ([2]; M5 2.5 µM) | Relative Effectiveness ± SD Based on CYP mRNA ([2]; M5 2.5 µM) | Relative Effectiveness ± SD Based on CYP Activity ([2]; M5 10 µM) | Relative Effectiveness ± SD Based on CYP mRNA ([2]; M5 10 µM) | impact on the activities of the CYPs tested [3] | share of total circulating radioactivity [4] | unbound fraction [5] | P-gp substrate status [6] | IC50 [7]
O=C(Nc1n[nH]c2ccc(Cc3cc(F)cc(F)c3)cc12)c1ccc(N2CCNCC2)cc1NC1CCOCC1 [M5] | -1.21% ±0.94 | -3.22% ±3.41 | -9.87% ^a | 2.98% ±2.91 | 4.22% ±4.37 | 9.02% ±8.75 | 19.3% ±11.4 | 9.56% ±8.52 | 26.5% ±10.7 | no significant impact | 12% | < 1% | substrate | –
CN1CCN(c2ccc(C(=O)Nc3n[nH]c4ccc(Cc5cc(F)cc(F)c5)cc34)c(NC3CCOCC3)c2)CC1 [Entrectinib] | – | – | – | – | – | – | – | – | – | – | – | – | – | > 10 µM

From article PMC8763936 (Investigational New Drugs, 2021)
